Experimental data published in patent US8361734B2, “Xanthurenic acid derivative pharmaceutical compositions and methods related thereto” (Naturon, Inc., priority 2004, dated 2013).

Tests used:
Type in all cases: in vivo
[1] = system: uremic Sprague Dawley rat; experiment: Natriuretic response (Na+ and K+ urine excretion) after i.v. administration in a uremic Sprague Dawley rat
Description: Female Sprague-Dawley rat, weighing 225 g, was made uremic by tying off one kidney and 30-50% of the second kidney. Two weeks later the rat was ready to test for natriuretic activity. The rat was anesthetized lightly with ether and a tail vein catheter was placed using PE10 tubing. Additionally, a urethra catheter was inserted using KY jelly and 2% lidocaine as a lubricant. The rat was restrained in a modified Plexiglas tube so that urine could be collected in 1.5-mL microcentrifuge tubes. Saline infusion started at time zero at 0.02 mL/min for the length of the assay. The same i.v. catheter was used to inject isolated xanthurenic acid 8-O-β-glucoside at the time indicated in a 1-mL volume in saline over the course of 10 minutes. […] The tubes were centrifuged at 14,000 rpm to separate any RBC's from the urine. Na^+ and K^+ concentrations in the urine were measured with respective ion selective electrodes. The Na^+ and K^+ excretion rates were calculated by: (vol of urine/time of collection period)×(ion urine concentration).
A female Sprague-Dawley rat, weighing 225 g, was made uremic by tying off one kidney and 30-50% of the second kidney. Two weeks later the rat was ready to test for natriuretic activity. The rat was anesthetized lightly with ether and a tail vein catheter was placed using PE10 tubing. Additionally, a urethra catheter was inserted using KY jelly and 2% lidocaine as a lubricant. The rat was restrained in a modified Plexiglas tube so that urine could be collected in 1.5-mL microcentrifuge tubes. Saline infusion started at time zero at 0.02 mL/min for the length of the assay. The same i.v. catheter was used to inject the test compound. Isolated xanthurenic acid 8-O-sulfate, 2 μg, was injected at the time indicated in a 1 mL volume in saline over the course of 10 minutes. Then saline infusion was returned to 0.02 mL/min for the duration of the assay. The tubes were centrifuged at 14,000 rpm to separate any RBC's from the urine. Na^+ and K^+ concentrations in the urine were measured with respective ion selective electrodes. The Na^+ and K^+ excretion rates were calculated by: (vol of urine/time of collection period)×(ion urine concentration).

[2] = system: normal Sprague Dawley rat; experiment: Natriuretic response (Na+ and K+ urine excretion) after oral administration in a normal Sprague Dawley rat
Procedure: A female Sprague Dawley rat (250 g) was anesthetized lightly with ether and a urethra catheter was inserted using KY jelly and 2% lidocaine as a lubricant. The rat was restrained in a modified Plexiglas tube so that urine could be collected in 1.5-mL microcentrifuge tubes. No saline infusion was administered. Synthetic xanthurenic acid 8-O-β-D-glucoside was injected with a feeding needle at the time indicated in a 1-mL volume of water over the course of 1 minute. […] The tubes were centrifuged at 14,000 rpm to separate any RBC's from the urine. Na^+ and K^+ concentrations in the urine were measured with respective ion selective electrodes. The Na^+ and K^+ excretion rates were calculated by: (vol of urine/time of collection period)×(ion urine concentration).
A female Sprague Dawley rat (250 g) was anesthetized lightly with ether and a urethra catheter was inserted using KY jelly and 2% lidocaine as a lubricant. The rat was restrained in a modified Plexiglas tube so that urine could be collected in 1.5-mL microcentrifuge tubes. No saline infusion was administered. Xanthurenic acid 8-O-sulfate was injected with a feeding needle at the time indicated in a 1-mL volume of water over the course of 1 minute. The tubes were centrifuged at 14,000 rpm to separate any RBC's from the urine. Na^+ and K^+ concentrations in the urine were measured with respective ion selective electrodes. The Na^+ and K^+ excretion rates were calculated by: (vol of urine/time of collection period)×(ion urine concentration).

[3] = system: normal Sprague Dawley rat; experiment: Natriuretic response (Na+ and K+ urine excretion) after i.v. administration in a normal Sprague Dawley rat; details: for natriuretic response (Na+ excretion): 2 μg i.v., FIGS. 1-4
Procedure: A female Sprague Dawley rat (250 g) was anesthetized lightly with ether and a tail vein catheter was placed using PE10 tubing. Additionally, a urethra catheter was inserted using KY jelly and 2% lidocaine as a lubricant. The rat was restrained in a modified Plexiglas tube so that urine could be collected in 1.5-mL microcentrifuge tubes. Saline infusion started at time zero at 0.02 mL/min for the duration of the assay. The same i.v. catheter was used to inject the test compound. Synthetic xanthurenic acid 8-O-β-D-glucoside, 2 μg, was injected at the time indicated in a 1-mL volume in saline over the course of 10 minutes. The tubes were centrifuged at 14,000 rpm to separate any RBC's from the urine. Na^+ and K^+ concentrations in the urine were measured with respective ion selective electrodes. The Na^+ and K^+ excretion rates were calculated by: (vol of urine/time of collection period)×(ion urine concentration). […] Given an extracellular volume of 50 mL in a 250-g rat, the concentration of the test compound was […], a possible minimum dose.
A female Sprague Dawley rat (250 g) was anesthetized lightly with ether and a tail vein catheter was placed using PE10 tubing. Additionally, a urethra catheter was inserted using KY jelly and 2% lidocaine as a lubricant. The rat was restrained in a modified Plexiglas tube so that urine could be collected in 1.5-mL microcentrifuge tubes. Saline infusion started at time zero at 0.02 mL/min for the length of the assay. The same i.v. catheter was used to inject the test compound. Synthetic xanthurenic acid 8-O-β-D-glucoside, 10 μg i.v. was injected at the time indicated in a 1-mL volume in saline over the course of 10 minutes. At the indicated time the saline infusion was increased tenfold to 0.2 mL/min for ten minutes and returned to 0.02 mL/min for the duration of the assay. The tubes were centrifuged at 14,000 rpm to separate any RBC's from the urine. Na^+ and K^+ concentrations in the urine were measured with respective ion selective electrodes. The Na^+ and K^+ excretion rates were calculated by: (vol of urine/time of collection period)×(ion urine concentration).

[4] = i.v. administered sulfate, FIG. 19

O=C(O)c1cc(=O)c2cccc(OS(=O)(=O)O)c2[nH]1 [xanthurenic acid 8-O-sulfate, Xanthurenic Acid 8-O-sulfate]
Na+ urine concentration after the increase [1, 4]: 160 mM
Na+ urine concentration before the increase [1, 4]: 60 mM
time until natriuresis approached control levels ([1]; isolated sulfate 2 μg i.v., uremic rat): ≤ 70 min
natriuretic response ([1]; isolated sulfate 2 μg i.v., uremic rat, FIGS. 17-20): caused sustained natriuretic response
time to peak of natriuresis ([1]; isolated sulfate 2 μg i.v., uremic rat, FIGS. 17 and 18): ≤ 30 min
K+ excretion ([1]; isolated sulfate 2 μg i.v., uremic rat, FIGS. 18 and 19): did not increase
Na+ urine concentration ([2]; 20 ug oral, synthetic sulfate, normal rat): below 50 mM
natriuretic response ([2]; 20 ug oral, synthetic sulfate, normal rat, FIGS. 21-24): not orally active

O=C(O)c1cc(=O)c2cccc(O[C@@H]3OC(CO)[C@@H](O)[C@H](O)C3O)c2[nH]1 (stereo partly drawn) [xanthurenic acid 8-O-β-D-glucoside, Xanthurenic acid 8-O-β-D-glucoside]
time of peak Na+ excretion ([1]; isolated glucoside 3 μg i.v., uremic rat, FIG. 13): 70 min
natriuretic response ([1]; isolated glucoside 3 μg i.v., uremic rat, FIGS. 13-16): caused a sustained natriuretic response
K+ excretion ([1]; isolated glucoside 3 μg i.v., uremic rat, FIGS. 14 and 15): did not increase
K+ excretion after furosemide ([1]; pretreatment with isolated glucoside 3 μg i.v. followed by furosemide 20 ug i.v., uremic rat, FIGS. 14 and 15): prevented the typical increase in K^+ excretion
natriuretic response ([2]; 10 μg oral, synthetic compound, normal rat, FIGS. 9-12): orally active
Na+ urine concentration reached ([2]; glucoside oral, normal rat, FIG. 11): 160 mM
K+ excretion ([2]; pretreatment with glucoside 10 μg oral followed by furosemide 100 μg oral, FIG. 10): did not increase K^+ excretion
furosemide-induced K+ excretion ([2]; pretreatment with glucoside 10 μg oral, furosemide 100 μg oral): inhibited
natriuretic response (Na+ excretion) ([3]; synthetic compound, normal rat): caused a sustained natriuretic response
Na+ excretion rate before increase of saline infusion ([3]; 10 μg i.v., saline 0.02 mL/min, FIG. 6): 2 uEq/min
Na+ excretion rate after saline infusion increased tenfold ([3]; 10 μg i.v., saline 0.2 mL/min for 10 minutes, FIG. 6): 10 uEq/min
time after administration at which urine production decreased ([3]; 10 μg i.v., saline infusion 0.02 mL/min): 140 min
K+ excretion ([3]; 10 μg i.v., synthetic compound, normal rat): did not increase
natriuretic response ([3]; 10 μg i.v., synthetic compound, normal rat, FIGS. 5-8): caused a sustained natriuretic response
natriuresis ([3]; synthetic glucoside given subsequently to xanthurenic acid 2 ug i.v., normal rat): did cause natriuresis

O=C(O)c1cc(O)c2cccc(O)c2n1 [xanthurenic acid]
natriuretic response (Na+ excretion) ([3]; synthetic compound, normal rat): did not increase Na^+ excretion
